Source: PMC5469811, “Identification of GXXXXG motif in Chrysophsin-1 and its implication in the design of analogs with cell-selective antimicrobial and anti-endotoxin activities” (Scientific Reports, 2017)
Converted amounts (≈) assume the structure as drawn.

What was measured:
Test in all cases: microbe, parasite or virus in culture
Type in all cases: cell-based
[1] = test system: Candida albicans (ATCC 10231); conditions: ATCC10231; Candida albicans (ATCC 10231); NCCLS micro broth dilution, 35 °C, 48 h, absorbance 492 nm; read-out: Minimum inhibitory concentration (MIC)
Procedure: (§1) The anti- fungal activity of peptides was performed according to the standard micro broth dilution technique as per NCCLS guidelines. These plates were incubated in a moist chamber at 35 °C, and an absorbance at 492 nm was recorded on a VersaMax microplate reader after 48 h for C. albicans ATCC 10231 and C. parapsilosis ATCC 22019 and 72 h for C. neoformans.

[2] = test system: Candida parapsilosis (ATCC 22019); conditions: ATCC22019; Candida parapsilosis (ATCC 22019); NCCLS micro broth dilution, 35 °C, 48 h, absorbance 492 nm; read-out: Minimum inhibitory concentration (MIC)
Procedure: as §1

Cryptococcus neoformans = conditions: Cryptococcus neoformans; NCCLS micro broth dilution, 35 °C, 72 h, absorbance 492 nm; read-out: Minimum inhibitory concentration (MIC)
Procedure: as §1

[3] = test system: Sporothrix schenckii (Patient isolates); conditions: Sporothrix schenckii (patient isolates); NCCLS micro broth dilution, 35 °C; read-out: Minimum inhibitory concentration (MIC)

SMILES: OC(Cn1cncn1)(Cn1cncn1)c1ccc(F)cc1F [Fluconazole, reference compound]
- MIC [1]: 3.26 µM (≈ 0.998 µg/mL)
- MIC [2]: 6.53 µM (≈ 2 µg/mL)
- MIC (Cryptococcus neoformans): 6.53 µM (≈ 2 µg/mL)
- MIC [3]: 6.53 µM (≈ 2 µg/mL)
